The results in this text go back to US12545900B2, “CGAS/DNCV-like nucleotidyltransferases and uses thereof” (Dana-Farber Cancer Institute, Inc., priority 2018, dated 2026).

Test [1] has as its target T1, RECON (Mus musculus, UniProt Q8VC28).
T1 construct: 6xHis-SUMO2 (N, cleaved yes); made in house; host or cells: E. coli BL21 CodonPlus (DE3)-RIL
T1 sequence (Q8VC28 1-323): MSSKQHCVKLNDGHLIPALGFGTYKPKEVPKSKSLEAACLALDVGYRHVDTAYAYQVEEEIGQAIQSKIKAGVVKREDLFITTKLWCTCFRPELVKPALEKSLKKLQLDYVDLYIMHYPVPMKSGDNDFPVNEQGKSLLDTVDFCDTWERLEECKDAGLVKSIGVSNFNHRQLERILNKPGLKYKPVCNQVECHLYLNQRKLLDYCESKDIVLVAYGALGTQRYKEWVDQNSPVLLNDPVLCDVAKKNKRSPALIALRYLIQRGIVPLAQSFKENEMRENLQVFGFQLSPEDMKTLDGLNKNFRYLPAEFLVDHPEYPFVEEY
Nature of the test: Gel shift assay, radiolabeled nucleotide binding to RECON (native PAGE). The note with it: radiolabeled nucleotide, 0, 4, 20, 100 μM protein.
Description: (§1) Briefly, recombinant Mus musculus STING or RECON, at 4, 20, or 100 μM was incubated with radiolabeled nucleotide (≤1 μM final concentration) in gel shift buffer for final conditions of 50 mM Tris pH 7.5, 60 mM KCl, 5 mM Mg (OAc) 2, and 1 mM DTT. Experiments were prepared by combining 1 μL of [α-^32P] labeled nucleotide, 2 uL 5x gel shift buffer, 5 μL of nuclease free water, and started by addition of 2 μL of recombinant protein in storage buffer.
(§2) After 30 min of equilibration, bound and free nucleotide were separated by 6% native PAGE in 0.5x TBE buffer. Gels were dried, and exposed to phosphorscreen prior to detection by Typhoon Trio Variable Mode Imager system (GE Healthcare). Gel shifts were quantified with ImageQuant® 5.2 and the % bound nucleotide was calculated as a proportion of total bound and free nucleotide for each lane, after subtraction of background signal. Gel shift data is representative of ≥2 independent experiments.

The target of test [2] is T1, RECON. In words: RECON enzyme assay (oxidation of NADPH cosubstrate). It is filed as biochemical. The following applies: nucleotide 50-0.05 μM. As to the method:
Activity assays were performed as previously described (McFarland et al. (2017) Immunity 46:433-445). Briefly, a 2-fold dilution series of nucleotide from 50-0.05 μM was incubated in 1×PBS with 200 μM NADPH (cosubstrate) and 25 μM 9,10-Phenanthrenequinone (substrate). The reactions were started with the addition of RECON to a final concentration of 0.5 μM and absorbance at 340 nm was monitored at 20 s intervals for 20 min. Slope of each reaction in the linear range (20-250 s) was used to calculate activity (Linear regression/straight Line analysis, Prism 7.0c). Values were normalized to reactions with zero nucleotide added, which defined 100% activity.

The target in test [3] is T2, CapE (Escherichia coli, UniProt Q6XGD4).
T2 construct: made in house; host or cells: E. coli BL21 CodonPlus (DE3)-RIL
T2 sequence (Q6XGD4 whole entry): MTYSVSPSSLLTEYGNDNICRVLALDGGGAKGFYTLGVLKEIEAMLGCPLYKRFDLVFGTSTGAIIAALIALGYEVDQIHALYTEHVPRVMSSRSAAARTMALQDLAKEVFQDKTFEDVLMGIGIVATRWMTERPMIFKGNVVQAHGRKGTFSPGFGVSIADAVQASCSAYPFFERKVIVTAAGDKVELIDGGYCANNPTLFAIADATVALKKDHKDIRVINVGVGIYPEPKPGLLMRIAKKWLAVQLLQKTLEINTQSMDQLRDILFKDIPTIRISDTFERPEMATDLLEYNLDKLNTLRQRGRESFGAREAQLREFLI
In words: Phospholipase assay (EnzChek Phospholipase A1), CapE. The test is classed as biochemical, E. coli. The following applies: 0.1, 1, and 10-fold molar ratios of nucleotide to phospholipase. As to the method:
Patatin-like lipases were assayed as previously described (Gaspar & Machner (2014) Proc. Natl. Acad. Sci. U.S.A. 111:4560-4565). Briefly, CapV and CapE were produced recombinantly and catalytic activity was measured using the EnzChek® Phospholipase A1 Assay Kit (Invitrogen) according to the manufacturer's instructions. […] Assays were monitored fluorometrically Ex=460 nm/Em=515 nm, for 60 min at ˜90 s intervals at room temperature using a Biotek Synergy plate reader. Slope of each reaction in the linear range was used to calculate activity (Linear regression/straight line analysis, Prism 7.0c). A PLA1 standard curve from 20-0.02 U was used to interpolate phospholipase activity. Emission was monitored at a gain of 100 and/or 50 in order to extend the linear range of the assay.

The subject of test [4] is interferon-β reporter in HEK293T cells expressing Mus musculus STING. Nature of the test: Cellular assay for interferon-β induction (in-cell STING reporter assay). The following applies: HEK293T cells transfected with plasmid overexpressing the synthesizing enzyme.
The target of test [5] is T3, Mus musculus STING (Mus musculus, UniProt Q3TBT3).
T3 construct: 6xHis-SUMO2 (N, cleaved yes); made in house; host or cells: E. coli BL21 CodonPlus (DE3)-RIL
T3 sequence (Q3TBT3 138-378 limits assumed): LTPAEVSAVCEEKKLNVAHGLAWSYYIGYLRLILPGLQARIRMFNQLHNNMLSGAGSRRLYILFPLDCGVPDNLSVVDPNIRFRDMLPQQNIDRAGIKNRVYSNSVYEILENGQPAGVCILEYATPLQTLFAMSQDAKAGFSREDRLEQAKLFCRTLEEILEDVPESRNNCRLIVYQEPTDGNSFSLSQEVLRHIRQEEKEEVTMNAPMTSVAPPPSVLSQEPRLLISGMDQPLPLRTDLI
Nature of the test: Gel shift assay, radiolabeled nucleotide binding to STING (native PAGE). The note with it: radiolabeled nucleotide, 0, 4, 20, 100 μM protein.
Description: as §1, §2

“Also recorded” adds a separate entry of the source.

As for `Nc1ncnc2c1ncn2C1OC2COP(=O)(O)OC3C(COP(=O)(O)OC2C1O)OC(n1ccc(=O)[nH]c1=O)C3O` (stereo not shown) [cUMP-AMP, 3′3′ cyclic uridine monophosphate-adenosine monophosphate], the “recognition/binding of nucleotide by RECON” value in test [1] is reported as “bound to cUMP-AMP; also recorded: detected by RECON”. In test [2], the “inhibition of RECON enzymatic activity” value is “inhibited RECON function, albeit with a reduced potency compared to the previously reported inhibition by c-di-AMP and 3′3′ cGAMP”. Besides, the “activation of CapE phospholipase activity” value in test [3] is reported as “CapE as a direct cUMP-AMP receptor”. Moreover, the “activation of STING-dependent type I interferon (IFN-β reporter)” value in test [4] was “failed to activate STING-dependent type I interferon in cells”.

`Nc1nc2c(ncn2[C@@H]2O[C@@H]3COP(=O)(O)O[C@H]4[C@@H](O)[C@H](n5cnc6c(N)ncnc65)O[C@@H]4COP(=O)(O)O[C@H]4[C@@H](O)[C@H](n5cnc6c(N)ncnc65)O[C@@H]4COP(=O)(O)O[C@H]3[C@H]2O)c(=O)[nH]1` [cAAG, 3′3′3′ tricyclic adenosine monophosphate-adenosine monophosphate-guanosine monophosphate]: the “recognition/binding of nucleotide by STING” value in test [5] is reported as “escaped STING recognition”. Further, in test [1], the “recognition/binding of nucleotide by RECON” value is given as “detected by RECON”. The “inhibition of RECON enzymatic activity” value in test [2] was “inhibition of RECON enzymatic activity”.
